This note sets out measurements from PubChem BioAssay (NCI).

Among the test systems are A498 renal; ACHN renal; CCRF-CEM leukemia; MALME-3M melanoma; NCI-H226 lung; NCI-H23 lung; SF-295 CNS; SN12C renal; UO-31 renal; T-47D breast.
Assay in all cases: DTP human tumour cell line panel, 48 h

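Following 48 hours of exposure in 96-well plates, responses at five concentrations were used to interpolate endpoints linearly. GI50 = concentration required for 50% inhibition of growth. TGI: total growth inhibition.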

As usually defined, the TGI is the concentration giving total growth inhibition. A lower TGI goes with more potent growth arrest. For `OC1CCN2Cc3ccccc3N=C12` (stereo not given), the TGI in the test on A498 renal, in the test with ACHN renal, in the test on CCRF-CEM leukemia, in the test with MALME-3M melanoma, in the test on NCI-H226 lung and in the test on NCI-H23 lung was over 100 µM throughout. Moreover, the TGI with SF-295 CNS, with SN12C renal and in the test on UO-31 renal was over 100 µM in each case.

For the molecule `CC1OC1C(=O)P(=O)(O)O` (stereo not given), the TGI in the test on A498 renal, in the test with ACHN renal, with CCRF-CEM leukemia, in the test with NCI-H226 lung, in the test on NCI-H23 lung and with SF-295 CNS was over 100 µM each time. The TGI with SN12C renal, in the test with T-47D breast and in the test on UO-31 renal was over 100 µM each time.

For orientation: GI50 means the concentration that inhibits growth by half. For `COc1ccccc1C1C(C#N)=C(N)SC(N)=C1C#N`, the GI50 in the test with A498 renal was over 100 µM; in the test with ACHN renal, 65.1 µM; in the test on CCRF-CEM leukemia, 26.6 µM; with MALME-3M melanoma, 81.3 µM; in the test with NCI-H226 lung it was 25.6 µM; in the test on NCI-H23 lung it was 97 µM. For the same molecule, the GI50 in the test with SF-295 CNS is 67 µM; in the test with SN12C renal, 15.5 µM; with T-47D breast it was 35.5 µM; with UO-31 renal, 82.5 µM. Besides, the TGI is over 100 µM in the test with A498 renal; over 100 µM in the test with ACHN renal; 70.4 µM with CCRF-CEM leukemia; over 100 µM in the test with MALME-3M melanoma; 75.8 µM with NCI-H226 lung; over 100 µM in the test on NCI-H23 lung. In addition, the TGI in the test with SF-295 CNS is over 100 µM; in the test on SN12C renal, 42 µM; with T-47D breast, over 100 µM; in the test on UO-31 renal, over 100 µM.

Take `NCC(=O)N[C@H]1c2ccsc2/C(=N/O)[C@H]1O`: the TGI in the test with A498 renal, in the test on CCRF-CEM leukemia, in the test with MALME-3M melanoma, in the test on NCI-H226 lung, with NCI-H23 lung and in the test with SF-295 CNS was over 100 µM each time. Moreover, the TGI in the test on SN12C renal, in the test on T-47D breast and with UO-31 renal was over 100 µM in each case.

As for `Cc1ccccc1NC(=O)C(=O)C(C1OC(=O)c2ccccc21)[N+](=O)[O-]` (stereo not given), the TGI in the test on A498 renal, in the test on ACHN renal, in the test on CCRF-CEM leukemia, in the test with NCI-H226 lung, in the test with NCI-H23 lung and with SF-295 CNS was over 100 µM throughout. Also, the TGI in the test with SN12C renal and with UO-31 renal was over 100 µM in each case.
